Read-outs that look alike come from different tables or passages of the source.
Key:
[1] = tested on: CD34^+ cells
From the text: To assess whether mobilization alters expression of PD-L1 on HSCs we studied the immune phenotype of HSCs before and after mobilization with anti-CXCR4 in 5 healthy subjects and 8 individuals with T1D.
Blood samples were obtained from new onset diabetic individuals (New-onset T1D), long-standing diabetic individuals (T1D) and healthy individuals (CTRL) in accordance with The San Raffaele Scientific Research Institute under an Institutional Review Board committee approval. Peripheral blood mononuclear cells (PBMC) fractions were isolated by Ficoll density gradient centrifugation for cell culturing experiments. Additional blood samples were obtained from T1D subjects and CTRL at baseline before treatment and 6 hours after treatment with CXCR4-antagonist (Mozobil; Sanofi) at the dose of 0.24 mg/kg body weight in accordance with the Institution Review Board Committee of Padova (2996P) and was performed in accordance with the Declaration of Helsinki (Clinical trial registered on clinicaltrials.gov (NCT02056210)). Patients with Type 1 Diabetes aged 18-65 years were recruited among those referred to the diabetes outpatient clinic of the University Hospital of Padova. Individuals without diabetes aged 18-65 years were recruited from those referred to the same outpatient clinic for screening of other metabolic diseases. All provided written informed consent. […] Women with childbearing potential could participate in the study if on oral contraception, and a negative pregnancy test was required before study entry. […] All medications for the treatment of diabetes and for other medical conditions were allowed during the study.
To assess PD-L1, PD-L2 and PD-1 expression on human HSCs, fresh blood collected from healthy individuals, T1D and new-onset T1D individuals was stained with PE-Cy5.5 anti-human CD34, PE anti-human PD-L1 or PD-L2 or PD-1 (BD Biosciences). […]

[2] = tested on: Lin^−c-Kit^+Sca-1^+ cells
Experimental: (§1) We evaluated the characteristics of CXCR4 antagonist-mobilized HSCs by FACS analysis. Lin^−c-Kit^+Sca-1^+ cells were sorted from islet-transplanted or naïve CXCR4 antagonist-treated mice after 7 and 14 days of treatment. […] To evaluate the immunoregulatory role of PD-L1 in murine HSCs, we investigated the effect of mobilized HSCs from WT and PD-L1 KO mice on the alloimmune response in vitro. A standard MLR assay was performed in which HSCs (from WT B6 or PD-L1 KO mice) were syngeneic to responder cells (CD4^+ cells from B6) but allogeneic to bone marrow-derived DCs (from BALB/c). […] The percentage of peripheral PD-L1^+ KLS in 10-week-old NOD and B6 mice was evaluated by FACS. […] We performed a pilot study to assess the feasibility of generation of PD-L1^+ HSCs in vitro by pharmacologic approach. KLS cells were isolated from splenocytes of B6 and NOD mice by magnetic beads and cultured with standard stem cell medium plus PGE2 (2 μl, 10 μM).

[3] = tested on: KLS cells; test: In vitro culture of murine KLS cells with PGE2, PD-L1+ HSCs by FACS; assay type: cell-based; conditions: KLS of B6 and NOD mice; PGE2 (2 μl, 10 μM); after 8 days
Experimental: as §1

[4] = tested on: CD34^+ cells; test: Ex vivo culture of human CD34+ cells with PGE2, PD-L1 expression by FACS; assay type: cell-based
Experimental: CD34^+ cells were isolated from patients (20 ml of blood) using magnetic beads and ˜1×10^6 cells were plated in a U-bottom 96-well plate with 200 μl of the indicated medium. STFIA medium was defined as serum-free medium supplemented with 10 μg/ml heparin, 10 ng/ml human SCF, 20 ng/ml human TPO, 10 ng/ml human FGF-1, 100 ng/ml IGFBP2, and 500 ng/ml Angptl3. PGE2 was added the culture at 0 h, 24 h, 72 h and 6 days. An aliquot of 2 μl of diluted PGE2 at a concentration of 10 μM was added to the 200 μl of each well in the 96-well plate. The approximate final concentration of PGE2 in each well is 0.1 μM. Therefore, the cells are exposed to ˜0.1 μM of PGE2. The periodic addition of PGE2 at 24 h, 72 h and 6 days serves to maintain the PGE2 in the culture media. Cells were cultured for 7 days at 37° C. in 5% CO2 and the normal level of O2.
Alternatively, cells are cultured in the same conditions for 48 h in the absence of PGE2, after which and PGE2 is added and then later at 24 h after the initial additional. PGE2 is added to the same approximate final concentration of PGE2 of 0.1 μM. We typically observed a ˜10-fold increase of CD34^+PD-L1^+ of cells after 8 days of culture when compared with a cell culture with the same medium cultured for the same time in the same conditions with cells obtained from the same subjects but without addition of PGE2.
Human – human HSCs were cultured using StemSpan supplemented with human stem cell growth factors as previously reported (22). Briefly, CD34^+ cells were plated at 5×10^5 cells/ml in supplemented StemSpan on a 96-well plate, at 200 μl/well for 7 days. HSCs were pulsed with PGE2 as described in murine experiments. PD-L1^+ HSCs were quantified by FACS analysis at different timepoints and at the end of the procedure.

[5] = tested on: CD34+ cells; test: HSC mobilization with hrG-CSF (trial NCT01102699); assay type: in vivo, human; conditions: 5 μg/kg
[6] = after 7 and 14 days of treatment

For `c1cc(CN2CCCNCCNCCCNCC2)ccc1CN1CCCNCCNCCCNCC1` [CXCR4 antagonist, plerixafor], the “percentage of CD34^+ PD-L1^+ cells after mobilization” value ([1]; 5 controls and 8 T1D individuals) was “decrease”, the “PD-L1 expression on CD34^+ cells after mobilization” value ([1]; T1D individuals (n=8), before 1.5±0.8) was 4.7±1.5 and the “PD-L1 expression on CD34^+ cells after mobilization” value ([1]; healthy subjects (n=5), before 0.6±0.2) was 6.2±0.6. The “PD-L1^+ HSCs in bone marrow” value ([2]; B6 islet-transplanted mice, 6 h after initiation of treatment) was “did not increase”, the “CXCR4 expressed by extracted HSCs” value [2, 6] was 38.4±4.2% and the “PD-L1 expressed by mobilized HSCs” value [2, 6] was 58.0±7.1%.

With `CCCCC[C@H](O)/C=C/[C@H]1[C@H](O)CC(=O)[C@@H]1C/C=C\CCCC(=O)O` [PGE2, prostaglandin E2] the “increase in the PD-L1^+ HSCs” value [3] was ~30 % fold, the “increase in the percentage of PD-L1^+ HSCs” value ([4]; CD34+ cells of T1D individuals (n=10), after 7 days) was ~8 times fold and the “increased expression of PD-L1 as compared to baseline” value ([4]; PGE2 culture protocol) was “at least 5 fold”. For the same molecule, the “increase of CD34^+PD-L1^+ of cells” value ([4]; PGE2 ~0.1 μM, after 8 days of culture vs same culture without PGE2) was ~10 fold.

B1: hrG-CSF: granulocyte colony stimulating factor (protein, UniProt P09919 31-207, looked up)
Granulocyte …: TPLGPASSLPQSFLLKCLEQVRKIQGDGAALQEKLVSECATYKLCHPEELVLLGHSLGIPWAPLSSCPSQALQLAGCLSQLHSGLFLYQGLLQALEGISPELGPTLDTLQLDVADFATTIWQQMEELGMAPALQPTQGAMPAFASAFQRRAGGVLVASHLQSFLEVSYRVLRHLAQP
For B1, the “CD34+ cell mobilization” value ([5]; T1D individuals) was “impaired mobilization” and the “CD34+ cell mobilization” value ([5]; healthy controls) was “significantly increased”.

Reference: patent publication US10751373B2, “PD-L1 expressing hematopoietic stem cells and uses” (The Children's Medical Center Corporation, priority 2015, dated 2020)
